The experiment has as its system pointes ponto-géniculo-occipitales (P.G.O.). The experiment is described as follows: Reserpine-induced ponto-geniculo-occipital (PGO) spikes in the curarized cat. Format: in vivo, chat. To be noted: Felis catus, iv, 0.5 h; dose reducing number of PGO spikes by 50%; cat given réserpine 0,75 mg/kg i.p.; increasing i.v. doses every 30 min, 4H30 after réserpine; read-out: P G O DE 50. The source says:
Par ailleurs in a étudié l'action des drogues sur les pointes pontc-géniculo-occipitales lors du syndrome réser- pinique chez le chat curarisé, afin de mettre en évidence les propriétés antidépressives des composés.
Che= le chat, on enregistre une activité spécifique au niveau du pont, du noyau genouillé latéral et du cortex occipital qui fut appelée pointes ponto-géniculo-occipitales (P.G.O.).
Cette activité spontanée, (pointes P.G.O.), apparaissant lors du =ycle veille-sommeil, peut être induite par la réserpiné, agent pharmacologique diminuant le taux des monoamines cérébrales.
Cette activité électroencéphalographique, modulée par des mécanismes neuronaux sous le contrôle de neurotransmetteurs sy=aptiques, constitue donc un test pharmacologique pour l'étude de l'action centrale des drogues.
Toutes les expériences sont réalisées de manière aiguë sur des chats des deux sexes de 2 à 3 kg.
Avant le débtt de la préparation chirurgicale effectuée scis narcose à l'éther, l'animal reçoit une injection in- trapéritonéale de 0,75 mg/kg i.p. de réserpine.
Le chat est intubé pour permettre une ventilation artificielle.
Un anesthésique local (xylocalne à 2%) est injecté au niveau des points de pression et des incisions.
Des canules sont placées au niveau de la veine fémorale, pour l'injection des produits et l'infusion d'un agent curarisant, la gallamine triethiodide (Flaxédil^R), et de l'artère fémorale pour l'enregistrement de la pression artérielle.
Des électrodes monopolaires sont vissées α- niveau cortical et des électrodes bipolaires coaxiales sont placées sté- réotaxiquement au niveau des noyaux genouillés latéraux.
L'animal curarisé et ventilé artificiellement est maintenu à température constante tout au long de l'expérience.
L'électroencéphalogramme, l'électrocardiogramme et la pression artérielle sont enregistrés à l'aide d'un polygraphe : Grass modèle 79 D.
Des doses croissantes (0,1; 0,3; 1; 3; 10 et 30 mg/kg) des produits à étudier sont injectées par voie intraveineuse toutes les 30 minutes, 4H30 après l'administration de la réserpine.
Le nombre des pointes P.G.O. est comptabilisé automatiquement par périodes de 10 minutes et exprimé en pourcentage par périodes de 30 minutes en prenant la valeur obtenue lors des 30 minutes de contrôle comme référence (100%).
La dose efficace réduisant de 50% (DE 50) le nombre des pointes P.G.O. est calculée à l'aide d'une courbe de regression semi-logarithmique.

Regarding `C1=C(CSc2ccccc2)N2CCN=C2S1` [compound 1, Chlorhydratede phénylthiométhyl-3 dihydro-5,6 imidazo [2,1 - b] thiazole], the ED50 was found to be 0.4 mg/kg.
Then `COc1ccccc1OCC1=CSC2=NCCN12` [compound 3], with 0.4 mg/kg.
The result for `C1=C(COc2ccccc2)N2CCN=C2S1` [compound 5, Chlorhydrate du phénoxyméthyl-3 dihydro-5,6 imidazo [2,1-b] thiazole] reads 1.2 mg/kg.
Then `COc1ccc(OCC2=CSC3=NCCN23)cc1` [compound 6], with 1 mg/kg; and `Clc1cccc(OCC2=CSC3=NCCN23)c1` [compound 9], with 1 mg/kg.
With `Cc1ccccc1OCC1=CSC2=NCCN12` [compound 10, Chlorhydratede (méthyl-2 phénoxy-méthyl)-3 dihydro-5,6 imidazo-[2,1-b] thiazole], the ED50 amounted to 0.3 mg/kg.
The result for `Clc1ccccc1OCC1=CSC2=NCCN12` [compound 11] reads 0.24 mg/kg.
The result for `Cc1ccc(OCC2=CSC3=NCCN23)cc1` [compound 12] reads 0.8 mg/kg; that for `Brc1ccccc1OCC1=CSC2=NCCN12` [compound 18], 0.14 mg/kg.
Consider `FC(F)(F)c1ccccc1OCC1=CSC2=NCCN12` [compound 21], for which the ED50 stood at 0.2 mg/kg.
As to `CCOc1ccccc1OCC1=CSC2=NCCN12` [compound 24], the ED50 worked out at 0.5 mg/kg.
The result for `C1=C(COc2ccccc2-c2ccccc2)N2CCN=C2S1` [compound 31] reads 0.24 mg/kg.
